Legend:
bamyardgrass = assay: Test B flood test barnyardgrass; assay type: in vivo, Echinochloa crus-galli
Procedure, shortened: (§1)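 Read-out is a visual response score from 0 (no effect) to 10 (complete control), assigned by comparison with untreated controls. Treatment was applied at the 2-leaf stage, and plants stayed in the greenhouse for twelve to sixteen days before scoring.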

wheat = assay: Test B pre/postemergence wheat; assay type: in vivo, Triticum aestivum
Procedure, shortened: (§2)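 Herbicidal effect was estimated by eye on a ten-point control scale after plants spent twelve to sixteen days in a greenhouse following soil or foliar treatment. Foliar sprays targeted plants at one to four leaves; all doses were formulated in a non-phytotoxic solvent with surfactant.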

morningglory = assay: Test B pre/postemergence morningglory; assay type: in vivo, Ipomoea hederacea
Procedure, shortened: as §2

blackgrass = assay: Test B pre/postemergence blackgrass; assay type: in vivo, Alopecurus myosuroides
Procedure, shortened: as §2

rape = assay: Test B pre/postemergence rape; assay type: in vivo, Brassica napus
Procedure, shortened: as §2

bedstraw = assay: Test B pre/postemergence bedstraw; assay type: in vivo, Galium aparine; conditions: Postemergence
Procedure, shortened: as §2

velvetleaf = assay: Test B pre/postemergence velvetleaf; assay type: in vivo, Abutilon theophrasti
Procedure, shortened: as §2

cocklebur = assay: Test B pre/postemergence cocklebur; assay type: in vivo, Xanthium strumarium
Procedure, shortened: as §2

wild oat = assay: Test B pre/postemergence wild oat; assay type: in vivo, Avena fatua
Procedure, shortened: as §2

pigweed = assay: Test B pre/postemergence pigweed; assay type: in vivo, Amaranthus retroflexus
Procedure, shortened: as §2

purple nutsedge = assay: Test B pre/postemergence purple nutsedge; assay type: in vivo, Cyperus rotundus
Procedure, shortened: as §2

corn = assay: Test B pre/postemergence corn; assay type: in vivo, Zea mays
Procedure, shortened: as §2

rice = assay: Test B flood test rice; assay type: in vivo, Oryza sativa
Procedure, shortened: as §1

duck salad = assay: Test B flood test duck salad; assay type: in vivo, Heteranthera limosa
Procedure, shortened: as §1

surinam grass = assay: Test B pre/postemergence surinam grass; assay type: in vivo, Brachiaria decumbens
Procedure, shortened: as §2

smallflower flatsedge = assay: Test B flood test smallflower flatsedge; assay type: in vivo, Cyperus difformis
Procedure, shortened: as §1

[1] = Rate 62 g/ha, headed Pre-emergence (flood test species), scale 0 to 10 (0 no effect, 10 complete control)
[2] = Rate 125 g/ha, Pre-emergence, flood test species, scale 0 to 10 where 0 is no effect and 10 is complete control
[3] = Rate 250 g/ha, Pre-emergence, flood-test species, scale 0 to 10, 0 is no effect, 10 is complete control
[4] = Rate 500 g/ha, Pre-emergence, flood test species, scale 0 to 10 (0 no effect, 10 complete control)
[5] = Postemergence, Rate 125 g/ha, scale 0 to 10, 0 is no effect, 10 is complete control
[6] = Preemergence, Rate 62 g/ha, scale of 0 to 10 where 0 is no effect and 10 is complete control
[7] = Preemergence, Rate 500 g/ha, scale of 0 to 10 where 0 is no effect and 10 is complete control
[8] = Rate 62 g/ha, Postemergence, scale 0 to 10 (0 no effect, 10 complete control)
[9] = Rate 250 g/ha, Postemergence, scale of 0 to 10 where 0 is no effect and 10 is complete control
[10] = Rate 500 g/ha, Postemergence, scale 0 to 10, 0 no effect, 10 complete control
[11] = Preemergence, Rate 250 g/ha, scale of 0 to 10 where 0 is no effect and 10 is complete control

CC(C)N(C(=O)n1oc(=O)n(C2CC3CCC2C3)c1=O)c1ccc(F)cc1 (centres unmarked) [Compound 327]
Barnyardgrass plant response rating (bamyardgrass; [1]): 0 | Barnyardgrass plant response rating (bamyardgrass; [2]): 0 | Barnyardgrass plant response rating (bamyardgrass; [3]): 3 | Barnyardgrass plant response rating (bamyardgrass; [4]): 0 | Plant response rating, Wheat (wheat; [5]): 0 | Wheat plant response rating (wheat; [6]): 0 | Wheat plant response rating (wheat; [7]): 4 | Wheat plant response rating (wheat; [8]): 0 | Plant response rating, Wheat (wheat; [9]): 0 | Plant response rating, Wheat (wheat; [10]): 1 | Plant response rating, Morningglory (morningglory; [5]): 8 | Morningglory plant response rating (morningglory; [6]): 0 | Morningglory plant response rating (0 to 10 scale) (morningglory; Preemergence, Rate 125 g/ha): 0 | Morningglory plant response rating (morningglory; [11]): 0 | Morningglory plant response rating (morningglory; [7]): 0 | Morningglory plant response rating (morningglory; [8]): 7 | Plant response rating, Morningglory (morningglory; [9]): 8 | Plant response rating, Morningglory (morningglory; [10]): 10 | Plant response rating, Blackgrass (blackgrass; [5]): 0 | Blackgrass plant response rating (blackgrass; [6]): 0 | Blackgrass plant response rating (0 to 10 scale) (blackgrass; Preemergence, Rate 125 g/ha): 0 | Blackgrass plant response rating (blackgrass; [11]): 4 | Blackgrass plant response rating (blackgrass; [7]): 7 | Blackgrass plant response rating (blackgrass; [8]): 0 | Plant response rating, Blackgrass (blackgrass; [9]): 3 | Plant response rating, Blackgrass (blackgrass; [10]): 7 | Plant response rating, Rape (rape; [5]): 0 | Rape plant response rating (rape; [6]): 0 | Rape plant response rating (0 to 10 scale) (rape; Preemergence, Rate 125 g/ha): 0 | Rape plant response rating (rape; [11]): 0 | Rape plant response rating (rape; [7]): 2 | Rape plant response rating (rape; [8]): 0 | Plant response rating, Rape (rape; [9]): 2 | Plant response rating, Rape (rape; [10]): 2 | Plant response rating, Bedstraw (bedstraw; Rate 125 g/ha, scale 0 to 10, 0 is no effect, 10 is complete control): 7 | Bedstraw plant response rating (bedstraw; Rate 62 g/ha, scale 0 to 10 (0 no effect, 10 complete control)): 7 | Plant response rating, Bedstraw (bedstraw; Rate 250 g/ha, scale of 0 to 10 where 0 is no effect and 10 is complete control): 7 | Plant response rating, Velvetleaf (velvetleaf; [5]): 0 | Velvetleaf plant response rating (velvetleaf; [6]): 0 | Velvetleaf plant response rating (0 to 10 scale) (velvetleaf; Preemergence, Rate 125 g/ha): 0 | Velvetleaf plant response rating (velvetleaf; [11]): 0 | Velvetleaf plant response rating (velvetleaf; [7]): 0 | Velvetleaf plant response rating (velvetleaf; [8]): 0 | Plant response rating, Velvetleaf (velvetleaf; [9]): 0 | Plant response rating, Velvetleaf (velvetleaf; [10]): 0 | Plant response rating, Cocklebur (cocklebur; [5]): 0 | Cocklebur plant response rating (cocklebur; [6]): 0 | Cocklebur plant response rating (0 to 10 scale) (cocklebur; Preemergence, Rate 125 g/ha): 0 | Cocklebur plant response rating (cocklebur; [11]): 0 | Cocklebur plant response rating (cocklebur; [7]): 0 | Cocklebur plant response rating (cocklebur; [8]): 0 | Plant response rating, Cocklebur (cocklebur; [9]): 0 | Plant response rating, Cocklebur (cocklebur; [10]): 0 | Plant response rating, Wild oats (wild oat; [5]): 0 | Wild oats plant response rating (wild oat; [6]): 0 | Wild oats plant response rating (0 to 10 scale) (wild oat; Preemergence, Rate 125 g/ha): 0 | Wild oats plant response rating (wild oat; [11]): 0 | Wild oats plant response rating (wild oat; [7]): 4 | Wild oats plant response rating (wild oat; [8]): 0 | Plant response rating, Wild oats (wild oat; [9]): 0 | Plant response rating, Wild oats (wild oat; [10]): 0 | Plant response rating, Redroot pigweed (pigweed; [5]): 5 | Redroot pigweed plant response rating (pigweed; [6]): 0 | Redroot pigweed plant response rating (0 to 10 scale) (pigweed; Preemergence, Rate 125 g/ha): 0 | Redroot pigweed plant response rating (pigweed; [11]): 1 | Redroot pigweed plant response rating (pigweed; [7]): 3 | Redroot pigweed plant response rating (pigweed; [8]): 4 | Plant response rating, Redroot pigweed (pigweed; [9]): 6 | Plant response rating, Redroot pigweed (pigweed; [10]): 7 | Plant response rating, Nutsedge (purple nutsedge; [5]): 0 | Nutsedge plant response rating (0 to 10 scale) (purple nutsedge; Preemergence, Rate 125 g/ha): 0 | Nutsedge plant response rating (purple nutsedge; [11]): 0 | Nutsedge plant response rating (purple nutsedge; [7]): 0 | Nutsedge plant response rating (purple nutsedge; [8]): 0 | Plant response rating, Nutsedge (purple nutsedge; [9]): 0 | Plant response rating, Nutsedge (purple nutsedge; [10]): 0 | Plant response rating, Corn (corn; [5]): 0 | Corn plant response rating (corn; [6]): 0 | Corn plant response rating (0 to 10 scale) (corn; Preemergence, Rate 125 g/ha): 0 | Corn plant response rating (corn; [11]): 0 | Corn plant response rating (corn; [7]): 0 | Corn plant response rating (corn; [8]): 0 | Plant response rating, Corn (corn; [9]): 0 | Plant response rating, Corn (corn; [10]): 0 | Rice plant response rating (rice; [1]): 0 | Rice plant response rating (rice; [2]): 0 | Rice plant response rating (rice; [3]): 0 | Rice plant response rating (rice; [4]): 0 | Ducksalad plant response rating (duck salad; [1]): 0 | Ducksalad plant response rating (duck salad; [2]): 0 | Ducksalad plant response rating (duck salad; [3]): 0 | Ducksalad plant response rating (duck salad; [4]): 0 | Plant response rating, B. signalgrass (surinam grass; [5]): 0 | B. signalgrass plant response rating (surinam grass; [6]): 0 | B. signalgrass plant response rating (0 to 10 scale, 0 is no effect, 10 is complete control) (surinam grass; Preemergence, Rate 125 g/ha): 0 | B. signalgrass plant response rating (surinam grass; [11]): 1 | B. signalgrass plant response rating (surinam grass; [7]): 7 | B. signalgrass plant response rating (surinam grass; [8]): 0 | Plant response rating, B. signalgrass (surinam grass; [9]): 0 | Plant response rating, B. signalgrass (surinam grass; [10]): 0 | S. Flatsedge plant response rating (smallflower flatsedge; [1]): 0 | S. Flatsedge plant response rating (smallflower flatsedge; [2]): 0 | S. Flatsedge plant response rating (smallflower flatsedge; [3]): 0 | S. Flatsedge plant response rating (smallflower flatsedge; [4]): 0
